{"source": "patent US8206898B2", "about": "“RNA exit channel: target and method for inhibition of bacterial RNA polymerase” (priority 2003, dated 2012)", "key": {"[1]": {"system": "Escherichia coli hyper-permeable strain D21f2/TolC", "test": "MIC of Lpm for Escherichia coli Lpm^R isolates from saturation mutagenesis and selection", "assay_type": "cell-based", "experimental": "To define systematically determinants for function of Lpm, saturation mutagenesis of Escherichia coli rpoB and rpoC was performed, and Lpm^R mutants were isolated and characterized (targeting codons or residues located within 20 Å of Bacillus subtilis Lpm^R sites in the three-dimensional structure of RNAP; methods as in Mukhopadhyay, et al., (2004) Mol. Cell, in press, except that selection was performed in hyper-permeable strain D21f2/TolC (rfa tolC; Fralick et al., (1994) J. Bacteriol. 176, 6404-6406)). 24 independent single-substitution Lpm^r mutants were identified (Table 2). The substitution sites define an approximately 20 Å×20 Å continuous surface, located within the RNA-exit-channel, spanning the target, and containing each residue of the target (i.e., residues 1251, 1256, and 1321 of β and residues 248-249 of β′; Table 2). Substitution sites corresponding to substitution sites in the Bacillus subtilis Lpm^R mutants described above were among those identified (i.e., residue 1256 of β and residues 249 and 337 of β′; Tables 1, 2)."}, "[2]": {"biological_target": "RNAP-promoter open complex (RNAP holoenzyme, lacUV5-12 DNA fragment) (Escherichia coli, UniProt P0A8T7+P0A8V2)", "sequence (P0A7Z4 whole entry, the tested form may be a part)": "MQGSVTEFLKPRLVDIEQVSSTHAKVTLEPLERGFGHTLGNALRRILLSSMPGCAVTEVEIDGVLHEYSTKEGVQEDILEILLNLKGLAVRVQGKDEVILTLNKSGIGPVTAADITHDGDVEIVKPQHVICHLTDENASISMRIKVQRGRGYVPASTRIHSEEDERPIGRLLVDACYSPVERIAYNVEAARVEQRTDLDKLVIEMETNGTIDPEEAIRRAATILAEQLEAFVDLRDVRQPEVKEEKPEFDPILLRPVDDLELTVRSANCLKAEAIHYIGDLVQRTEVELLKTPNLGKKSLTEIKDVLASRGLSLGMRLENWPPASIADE", "sequence (P0A8V2 whole entry, the tested form may be a part)": "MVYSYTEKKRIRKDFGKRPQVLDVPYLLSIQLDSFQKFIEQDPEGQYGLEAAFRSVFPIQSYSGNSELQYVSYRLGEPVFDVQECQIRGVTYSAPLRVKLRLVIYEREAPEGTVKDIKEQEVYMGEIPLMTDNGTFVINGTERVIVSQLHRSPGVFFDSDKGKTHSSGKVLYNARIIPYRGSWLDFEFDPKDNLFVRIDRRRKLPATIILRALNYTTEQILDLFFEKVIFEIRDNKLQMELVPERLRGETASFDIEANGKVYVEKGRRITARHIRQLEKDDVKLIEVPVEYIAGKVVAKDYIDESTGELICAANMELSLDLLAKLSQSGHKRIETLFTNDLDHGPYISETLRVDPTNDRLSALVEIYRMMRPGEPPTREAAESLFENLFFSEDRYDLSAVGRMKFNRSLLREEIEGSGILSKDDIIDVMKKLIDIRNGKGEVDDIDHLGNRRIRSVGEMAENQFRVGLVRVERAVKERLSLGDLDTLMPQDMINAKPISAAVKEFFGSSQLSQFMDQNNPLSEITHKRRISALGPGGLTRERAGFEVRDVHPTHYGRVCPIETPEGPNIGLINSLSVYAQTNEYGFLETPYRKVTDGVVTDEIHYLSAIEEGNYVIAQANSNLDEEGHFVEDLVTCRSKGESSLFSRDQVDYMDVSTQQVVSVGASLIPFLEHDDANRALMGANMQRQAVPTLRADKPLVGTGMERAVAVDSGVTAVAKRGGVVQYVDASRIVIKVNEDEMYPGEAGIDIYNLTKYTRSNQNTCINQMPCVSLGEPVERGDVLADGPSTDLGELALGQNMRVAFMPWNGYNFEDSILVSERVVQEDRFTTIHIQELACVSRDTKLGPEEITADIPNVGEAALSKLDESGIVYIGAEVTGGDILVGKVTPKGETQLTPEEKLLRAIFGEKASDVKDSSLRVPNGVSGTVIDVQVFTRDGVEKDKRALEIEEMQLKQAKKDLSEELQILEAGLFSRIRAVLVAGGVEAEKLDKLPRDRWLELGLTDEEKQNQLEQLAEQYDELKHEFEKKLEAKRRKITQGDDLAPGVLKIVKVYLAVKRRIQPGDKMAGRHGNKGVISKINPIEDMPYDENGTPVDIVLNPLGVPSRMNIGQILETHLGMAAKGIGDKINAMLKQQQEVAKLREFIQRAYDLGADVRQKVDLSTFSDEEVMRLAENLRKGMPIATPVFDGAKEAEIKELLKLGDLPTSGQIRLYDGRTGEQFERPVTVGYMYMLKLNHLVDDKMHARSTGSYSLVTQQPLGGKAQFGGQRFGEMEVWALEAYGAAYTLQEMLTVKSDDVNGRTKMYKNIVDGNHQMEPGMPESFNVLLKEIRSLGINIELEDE", "sequence (P0A800 whole entry, further chain, the tested form may be a part)": "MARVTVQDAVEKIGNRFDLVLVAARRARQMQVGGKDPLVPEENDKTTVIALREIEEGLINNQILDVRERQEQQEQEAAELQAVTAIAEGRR", "sequence (P00579 whole entry, further chain, the tested form may be a part)": "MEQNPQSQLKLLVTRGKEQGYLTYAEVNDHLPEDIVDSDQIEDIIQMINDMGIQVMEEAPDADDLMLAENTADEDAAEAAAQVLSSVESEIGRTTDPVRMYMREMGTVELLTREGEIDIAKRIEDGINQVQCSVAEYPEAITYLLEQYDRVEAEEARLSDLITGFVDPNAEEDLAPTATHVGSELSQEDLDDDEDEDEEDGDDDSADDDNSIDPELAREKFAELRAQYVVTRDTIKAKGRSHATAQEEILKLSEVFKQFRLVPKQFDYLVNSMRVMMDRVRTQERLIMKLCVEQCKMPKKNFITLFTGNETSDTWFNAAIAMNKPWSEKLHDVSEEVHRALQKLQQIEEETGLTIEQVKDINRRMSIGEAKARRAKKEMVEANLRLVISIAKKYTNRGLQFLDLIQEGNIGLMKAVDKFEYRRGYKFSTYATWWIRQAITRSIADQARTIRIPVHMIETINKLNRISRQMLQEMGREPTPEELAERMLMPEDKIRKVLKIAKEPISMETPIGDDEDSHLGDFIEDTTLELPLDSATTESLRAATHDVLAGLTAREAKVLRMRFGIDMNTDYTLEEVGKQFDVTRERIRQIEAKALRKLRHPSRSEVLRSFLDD", "sequence (P0A8T7 whole entry, the tested form may be a part)": "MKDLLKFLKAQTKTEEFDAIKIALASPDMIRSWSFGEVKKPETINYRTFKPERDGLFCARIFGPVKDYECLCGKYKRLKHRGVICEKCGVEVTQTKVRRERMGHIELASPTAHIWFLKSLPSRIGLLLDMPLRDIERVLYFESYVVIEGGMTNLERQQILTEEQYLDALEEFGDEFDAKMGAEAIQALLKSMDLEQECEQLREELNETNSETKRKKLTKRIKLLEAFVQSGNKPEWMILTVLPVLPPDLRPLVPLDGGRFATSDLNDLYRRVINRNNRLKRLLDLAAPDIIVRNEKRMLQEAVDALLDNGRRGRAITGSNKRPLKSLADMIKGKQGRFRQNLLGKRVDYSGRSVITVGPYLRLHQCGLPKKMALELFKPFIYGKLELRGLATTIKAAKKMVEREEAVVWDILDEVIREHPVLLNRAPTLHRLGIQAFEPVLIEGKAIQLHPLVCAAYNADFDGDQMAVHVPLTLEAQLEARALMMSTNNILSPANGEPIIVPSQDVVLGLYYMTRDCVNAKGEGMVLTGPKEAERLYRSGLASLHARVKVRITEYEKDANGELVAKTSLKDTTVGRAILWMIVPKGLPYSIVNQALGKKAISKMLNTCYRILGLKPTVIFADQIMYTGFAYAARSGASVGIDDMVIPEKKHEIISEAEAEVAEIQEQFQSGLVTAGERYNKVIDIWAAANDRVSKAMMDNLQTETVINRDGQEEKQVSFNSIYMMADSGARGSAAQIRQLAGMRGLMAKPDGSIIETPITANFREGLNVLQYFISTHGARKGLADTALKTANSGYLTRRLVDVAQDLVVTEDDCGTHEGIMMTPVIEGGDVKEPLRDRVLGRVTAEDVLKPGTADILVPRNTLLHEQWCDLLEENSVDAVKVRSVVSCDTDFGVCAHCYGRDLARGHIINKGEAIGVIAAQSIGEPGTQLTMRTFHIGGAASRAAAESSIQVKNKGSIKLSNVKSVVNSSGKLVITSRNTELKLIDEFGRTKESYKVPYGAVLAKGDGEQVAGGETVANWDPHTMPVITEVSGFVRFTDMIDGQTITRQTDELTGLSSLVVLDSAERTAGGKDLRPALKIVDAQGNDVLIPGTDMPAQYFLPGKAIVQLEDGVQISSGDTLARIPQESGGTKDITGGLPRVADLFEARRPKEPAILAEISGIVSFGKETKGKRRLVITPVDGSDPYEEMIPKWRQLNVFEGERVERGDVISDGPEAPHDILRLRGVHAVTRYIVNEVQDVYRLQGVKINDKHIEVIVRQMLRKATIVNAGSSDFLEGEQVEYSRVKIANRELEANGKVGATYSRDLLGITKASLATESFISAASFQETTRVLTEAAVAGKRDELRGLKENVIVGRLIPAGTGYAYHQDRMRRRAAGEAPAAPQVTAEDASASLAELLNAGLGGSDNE", "test": "Electrophoretic mobility-shift analysis of open-complex formation", "assay_type": "biochemical", "conditions": "0-100 μm Lpm, added to RNAP before addition of the promoter DNA; FIG. 3", "experimental": "To determine whether Lpm inhibits steps in transcription up to and including formation of the RNAP-promoter open complex, electrophoretic mobility-shift experiments were performed. The analysis of open-complex formation was performed as follows: reaction mixtures (20 μl) contained 100 nM RNAP holoenzyme, 20 nM fluorochrome-labeled DNA fragment lacUV5-12 (Cy5, +26) (Mukhopadhyay et al., 2001), and 0-100 μm Lpm in TB (50 mM Tris-HCl (pH 8.0), 100 mM KCl, 10 mM MgCl2, 1 mM dithiothreitol, 10 μg/ml bovine serum albumin, and 5% glycerol), added before or after the DNA. Following 15 min at 37° C., 0.5 μl 1 mg/ml heparin was added (to disrupt non-specific complexes), and, following a further 2 minutes at 37° C., reaction mixtures were applied to 5% polyacrylamide slab gels (30:1 acrylamide/bisacrylamide; 6×9×0.1 cm) and electrophoresed in 90 mM Tris-borate (pH 8.0) and 0.2 mM EDTA (20 V/cm; 30 min at 37° C.) and analyzed using a fluorescence scanner (Storm 860; Molecular Dynamics)."}, "bacterial RNAP": {"system": "bacterial RNAP", "conditions": "literature; cited from earlier work"}, "[3]": {"system": "Gram-positive bacteria and Gram-negative bacteria", "conditions": "literature (Coronelli et al., 1975); cited from earlier work"}}, "data": [{"substance": "lipiarmycin [Lpm]", "values": [{"measurement": "MIC (mg/ml) (wild-type = 1)", "setting": "[1]; RpoB 1251 Tyr→Phe", "value": "10 fold relative to wild-type"}, {"measurement": "MIC (mg/ml) (wild-type = 1)", "setting": "[1]; RpoB 1256 Gln→Glu", "value": "10 fold relative to wild-type"}, {"measurement": "MIC (mg/ml) (wild-type = 1)", "setting": "[1]; RpoB 1256 Gln→Leu", "value": "5 fold relative to wild-type"}, {"measurement": "MIC (mg/ml) (wild-type = 1)", "setting": "[1]; RpoB 1302 Thr→Pro", "value": "5 fold relative to wild-type"}, {"measurement": "MIC (mg/ml) (wild-type = 1)", "setting": "[1]; RpoB 1318 Gly→Ser", "value": "5 fold relative to wild-type"}, {"measurement": "MIC (mg/ml) (wild-type = 1)", "setting": "[1]; RpoB 1319 Met→Arg", "value": "10 fold relative to wild-type"}, {"measurement": "MIC (mg/ml) (wild-type = 1)", "setting": "[1]; RpoB 1319 Met→Lys", "value": "5 fold relative to wild-type"}, {"measurement": "MIC (mg/ml) (wild-type = 1)", "setting": "[1]; RpoB 1321 Glu→Val", "value": "5 fold relative to wild-type"}, {"measurement": "MIC (mg/ml) (wild-type = 1)", "setting": "[1]; RpoB 1325 Val→Ala", "value": "10 fold relative to wild-type"}, {"measurement": "MIC (mg/ml) (wild-type = 1)", "setting": "[1]; RpoB 1325 Val→Leu", "value": "5 fold relative to wild-type"}, {"measurement": "MIC (mg/ml) (wild-type = 1)", "setting": "[1]; RpoC 248 Asp→Tyr", "value": "5 fold relative to wild-type"}, {"measurement": "MIC (mg/ml) (wild-type = 1)", "setting": "[1]; RpoC 249 Leu→Arg", "value": "5 fold relative to wild-type"}, {"measurement": "MIC (mg/ml) (wild-type = 1)", "setting": "[1]; RpoC 337 Arg→Hys", "value": "5 fold relative to wild-type"}, {"measurement": "MIC (mg/ml) (wild-type = 1)", "setting": "[1]; RpoC 337 Arg→Ser", "value": "5 fold relative to wild-type"}, {"measurement": "MIC (mg/ml) (wild-type = 1)", "setting": "[1]; wild-type E. coli", "value": "(wild-type = 1) mg/ml"}, {"measurement": "formation of the RNAP-promoter open complex", "setting": "[2]", "value": "inhibits formation of the RNAP-promoter open complex"}, {"measurement": "inhibition of bacterial RNAP", "setting": "bacterial RNAP", "value": "inhibits bacterial RNAP"}, {"measurement": "antibacterial effectiveness", "setting": "[3]", "value": "effective against both Gram-positive bacteria and Gram-negative bacteria"}]}]}
